According to PubChem BioAssay (NCI):
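Following 48 hours of exposure in 96-well plates, responses at five concentrations were used to interpolate endpoints linearly. GI50 = concentration required for 50% inhibition of growth. TGI marks complete inhibition of growth.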

Tests used:
Assay in all cases: NCI tumour cell line growth inhibition, 48 h
SK-MEL-5 melanoma = system: SK-MEL-5 melanoma
CAKI-1 renal = system: CAKI-1 renal
UACC-62 melanoma = system: UACC-62 melanoma
SF-268 CNS = system: SF-268 CNS
SK-OV-3 ovarian = system: SK-OV-3 ovarian
SK-MEL-28 melanoma = system: SK-MEL-28 melanoma
HL-60(TB) leukemia = system: HL-60(TB) leukemia
HCT-15 colon = system: HCT-15 colon
A498 renal = system: A498 renal
PC-3 prostate = system: PC-3 prostate
U251 CNS = system: U251 CNS
DU-145 prostate = system: DU-145 prostate
HCC-2998 colon = system: HCC-2998 colon
HCT-116 colon = system: HCT-116 colon
NCI-H23 lung = system: NCI-H23 lung
HS 578T breast = system: HS 578T breast
LOX IMVI melanoma = system: LOX IMVI melanoma
HT29 colon = system: HT29 colon
SK-MEL-2 melanoma = system: SK-MEL-2 melanoma
HOP-62 NSCLC = system: HOP-62 NSCLC
NCI-H460 lung = system: NCI-H460 lung
OVCAR-4 ovarian = system: OVCAR-4 ovarian
BT-549 breast = system: BT-549 breast
ACHN renal = system: ACHN renal
K-562 leukemia = system: K-562 leukemia
CCRF-CEM leukemia = system: CCRF-CEM leukemia
MDA-MB-231 breast = system: MDA-MB-231 breast
OVCAR-3 ovarian = system: OVCAR-3 ovarian
HOP-92 NSCLC = system: HOP-92 NSCLC
OVCAR-5 ovarian = system: OVCAR-5 ovarian
MCF7 breast = system: MCF7 breast
UO-31 renal = system: UO-31 renal
MOLT-4 leukemia = system: MOLT-4 leukemia
COLO 205 colon = system: COLO 205 colon
KM12 colon = system: KM12 colon
MDA-MB-435 = system: MDA-MB-435
IGROV1 ovarian = system: IGROV1 ovarian
NCI-H226 lung = system: NCI-H226 lung
RXF 393 renal = system: RXF 393 renal
786-0 renal = system: 786-0 renal
UACC-257 melanoma = system: UACC-257 melanoma
TK-10 renal = system: TK-10 renal
MALME-3M melanoma = system: MALME-3M melanoma
RPMI-8226 leukemia = system: RPMI-8226 leukemia
NCI-H522 lung = system: NCI-H522 lung
EKVX NSCLC = system: EKVX NSCLC
SR leukemia = system: SR leukemia
SW-620 colon = system: SW-620 colon
SNB-19 CNS = system: SNB-19 CNS
SN12C renal = system: SN12C renal
SF-295 CNS = system: SF-295 CNS
OVCAR-8 ovarian = system: OVCAR-8 ovarian
SNB-75 CNS = system: SNB-75 CNS
NCI/ADR-RES ovarian = system: NCI/ADR-RES ovarian
M14 melanoma = system: M14 melanoma

Fc1ccc(Oc2nc3ccccc3nc2-c2ccccc2)cc1
TGI (SK-MEL-5 melanoma): > 100000 nM
TGI (CAKI-1 renal): > 100000 nM
TGI (UACC-62 melanoma): > 100000 nM
TGI (SF-268 CNS): > 100000 nM
TGI (SK-OV-3 ovarian): > 100000 nM
TGI (SK-MEL-28 melanoma): > 100000 nM
TGI (HL-60(TB) leukemia): > 100000 nM
TGI (HCT-15 colon): > 100000 nM
TGI (A498 renal): > 100000 nM
TGI (PC-3 prostate): > 100000 nM
TGI (U251 CNS): > 100000 nM
TGI (DU-145 prostate): > 100000 nM
TGI (HCC-2998 colon): > 100000 nM
TGI (HCT-116 colon): > 100000 nM
TGI (NCI-H23 lung): > 100000 nM
TGI (HS 578T breast): > 100000 nM
TGI (LOX IMVI melanoma): > 100000 nM
TGI (HT29 colon): > 100000 nM
TGI (SK-MEL-2 melanoma): > 100000 nM
TGI (HOP-62 NSCLC): > 100000 nM
TGI (NCI-H460 lung): > 100000 nM
TGI (OVCAR-4 ovarian): > 100000 nM
TGI (BT-549 breast): > 100000 nM
TGI (ACHN renal): > 100000 nM
TGI (K-562 leukemia): > 100000 nM
TGI (CCRF-CEM leukemia): > 100000 nM
TGI (MDA-MB-231 breast): > 100000 nM
TGI (OVCAR-3 ovarian): > 100000 nM
TGI (HOP-92 NSCLC): > 100000 nM
TGI (OVCAR-5 ovarian): > 100000 nM
TGI (MCF7 breast): > 100000 nM
TGI (UO-31 renal): > 100000 nM
TGI (MOLT-4 leukemia): > 100000 nM
TGI (COLO 205 colon): > 100000 nM
TGI (KM12 colon): > 100000 nM
TGI (MDA-MB-435): > 100000 nM
TGI (IGROV1 ovarian): > 100000 nM
TGI (NCI-H226 lung): > 100000 nM
TGI (RXF 393 renal): > 100000 nM
TGI (786-0 renal): > 100000 nM
TGI (UACC-257 melanoma): > 100000 nM
TGI (TK-10 renal): > 100000 nM
TGI (MALME-3M melanoma): > 100000 nM
TGI (RPMI-8226 leukemia): > 100000 nM
TGI (NCI-H522 lung): > 100000 nM
TGI (EKVX NSCLC): > 100000 nM
TGI (SR leukemia): > 100000 nM
TGI (SW-620 colon): > 100000 nM
TGI (SNB-19 CNS): > 100000 nM
TGI (SN12C renal): > 100000 nM
TGI (SF-295 CNS): > 100000 nM

CNCCCn1c2c(c3ccc(Cl)cc3c1=O)C(=O)c1cc(OC)cnc1-2
GI50 (SK-MEL-5 melanoma): 1120 nM
TGI (SK-MEL-5 melanoma): 2490 nM
GI50 (CAKI-1 renal): 63.1 nM
TGI (CAKI-1 renal): 1780 nM
GI50 (SF-268 CNS): 397 nM
TGI (SF-268 CNS): 2190 nM
GI50 (SK-OV-3 ovarian): 658 nM
TGI (SK-OV-3 ovarian): 2080 nM
GI50 (SK-MEL-28 melanoma): 1620 nM
TGI (SK-MEL-28 melanoma): 3150 nM
GI50 (HL-60(TB) leukemia): 601 nM
TGI (HL-60(TB) leukemia): 2400 nM
GI50 (A498 renal): 531 nM
TGI (A498 renal): 9070 nM
GI50 (PC-3 prostate): 1020 nM
TGI (PC-3 prostate): 2330 nM
GI50 (DU-145 prostate): 331 nM
TGI (DU-145 prostate): 1740 nM
GI50 (HT29 colon): 1080 nM
TGI (HT29 colon): 2450 nM
GI50 (SK-MEL-2 melanoma): 13200 nM
TGI (SK-MEL-2 melanoma): 33400 nM
GI50 (NCI-H460 lung): 46.2 nM
TGI (NCI-H460 lung): 1250 nM
GI50 (OVCAR-4 ovarian): 1270 nM
TGI (OVCAR-4 ovarian): 2930 nM
GI50 (BT-549 breast): 645 nM
TGI (BT-549 breast): 2070 nM
GI50 (ACHN renal): 224 nM
TGI (ACHN renal): 1580 nM
GI50 (OVCAR-8 ovarian): 1180 nM
TGI (OVCAR-8 ovarian): 3500 nM
GI50 (MDA-MB-231 breast): 1620 nM
TGI (MDA-MB-231 breast): 3540 nM
GI50 (OVCAR-3 ovarian): 1410 nM
TGI (OVCAR-3 ovarian): 2780 nM
GI50 (HOP-92 NSCLC): 1190 nM
TGI (HOP-92 NSCLC): 2750 nM
GI50 (OVCAR-5 ovarian): 1690 nM
TGI (OVCAR-5 ovarian): 3180 nM
GI50 (UO-31 renal): 1080 nM
TGI (UO-31 renal): 2640 nM
GI50 (KM12 colon): 1100 nM
TGI (KM12 colon): 2430 nM
GI50 (MDA-MB-435): 1070 nM
TGI (MDA-MB-435): 2320 nM
GI50 (SNB-75 CNS): 263 nM
TGI (SNB-75 CNS): 1780 nM
GI50 (NCI-H226 lung): 1350 nM
TGI (NCI-H226 lung): 3860 nM
GI50 (RXF 393 renal): 1300 nM
TGI (RXF 393 renal): 2840 nM
GI50 (NCI/ADR-RES ovarian): 536 nM
TGI (NCI/ADR-RES ovarian): 2910 nM
GI50 (M14 melanoma): 569 nM
TGI (M14 melanoma): 1890 nM
GI50 (UACC-257 melanoma): 2240 nM
TGI (UACC-257 melanoma): 11100 nM
GI50 (SR leukemia): 143 nM
TGI (SR leukemia): 1110 nM
GI50 (SW-620 colon): 76.2 nM
TGI (SW-620 colon): 1980 nM
GI50 (SNB-19 CNS): 614 nM
TGI (SNB-19 CNS): 2260 nM
GI50 (SN12C renal): 1180 nM
TGI (SN12C renal): 3040 nM
GI50 (SF-295 CNS): 132 nM
TGI (SF-295 CNS): 1380 nM
